Here are results for nine molecules from US20080039392A1, “CRAC channel and modulator screening methods” (THE REGENTS OF THE UNIVERSITY OF CALIFORNIA, priority 2006, published 2008).

“Also recorded” adds a separate entry of the source.

In assay [1] the test system is CRAC current in olf186-F+Stim transfected S2 cells. In words: Whole-cell recording of CRAC current in S2 cells co-transfected with olf186-F (WT Orai) + Stim. The assay is classed as cell-based, Drosophila. Particulars: for CRAC current density: at −130 mV, high-Ca2+ pipette solution, 10 μM IP3 in pipette or TG in bath. The method, then: Whole-cell recording. Patch-clamp experiments were performed at room temperature in the standard whole-cell recording configuration. The membrane capacitance (a measure of cell surface area) of S2 cells selected for recording was 9.15±0.27 pF (mean ±SEM, n=287 cells, 22 experiments). To calculate current densities, peak current amplitudes were divided by membrane capacitance for each cell.
(§1) Cells transfected (Amaxa) with Orai and Stim constructs were identified by fluorescence of co-transfected GFP. Patch clamp experiments were performed at room temperature in the standard whole-cell recording, using conditions similar to those reported previously^10. The membrane capacitance of S2 cells selected for recording was 11.6±0.4 pF (n=131 cells). Membrane potentials were corrected for a liquid junction potential of 10 mV between the pipette and bath solution. The series resistance (2-7 MΩ) was not compensated. The membrane potential was held at −10 mV, and 220-ms voltage ramps from −130 to 90 mV alternating with 220-ms pulses to −130 mV were delivered every 2 s. Only cells with high input (>2 GΩ) were selected for recording. External and pipette solution recipes are listed in supplementary table 1. Analyzed data are presented as mean ±SEM.
(§2) Data were analyzed by Pulse (Heka Electronics) and Origin (OriginLab Corp.). Five I-V curves were averaged for display. […] Since almost all S2 cells at the moment of break-in display an outward current that disappears during perfusion with internal solution (but before the inward CRAC current starts to develop), the following procedure for leak subtraction was employed. The first three ramp currents after the outward current subsided were averaged (Imid). Then, another set of three ramps after maximal inward CRAC current had developed were averaged (Imax). The difference between Imax and Imid represents an isolated CRAC current but with amplitude less than the actual one. To correct this the difference was scaled such that the value of current at −130 mV is equal to maximal inward current minus initial inward current. Then the scaled difference was subtracted from Imax followed by fitting with a polynomial function. This fit was considered as the basal leak current. […] In this case a linear I-V curve reversing at 0 mV with current magnitude at +90 mV equal to the sustained outward current was assigned as leak current. For E180D Orai-induced CRAC current, the initial current was considered as leak.

The target of another assay is T1, E180D Orai mutant + Stim (Drosophila melanogaster, UniProt Q9U6B8, E178D).
T1 construct: A cDNA clone, pAc5.1/olf186-F, encoding full-length Drosophila olf186-F-RB; expressed in transfected cells; host or cells: Drosophila S2 cells (Invitrogen)
T1 sequence (Q9U6B8 whole entry E178D): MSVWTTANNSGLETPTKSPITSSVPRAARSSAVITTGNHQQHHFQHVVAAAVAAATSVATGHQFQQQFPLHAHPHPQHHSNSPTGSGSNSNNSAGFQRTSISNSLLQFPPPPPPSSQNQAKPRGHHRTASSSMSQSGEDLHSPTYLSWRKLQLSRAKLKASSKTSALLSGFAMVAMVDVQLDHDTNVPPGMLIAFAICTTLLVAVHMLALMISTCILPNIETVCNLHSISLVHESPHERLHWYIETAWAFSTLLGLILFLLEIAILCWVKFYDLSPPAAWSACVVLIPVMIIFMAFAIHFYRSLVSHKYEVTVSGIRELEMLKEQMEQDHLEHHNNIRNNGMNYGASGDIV
T1 sequence (P83094 24-570, further chain): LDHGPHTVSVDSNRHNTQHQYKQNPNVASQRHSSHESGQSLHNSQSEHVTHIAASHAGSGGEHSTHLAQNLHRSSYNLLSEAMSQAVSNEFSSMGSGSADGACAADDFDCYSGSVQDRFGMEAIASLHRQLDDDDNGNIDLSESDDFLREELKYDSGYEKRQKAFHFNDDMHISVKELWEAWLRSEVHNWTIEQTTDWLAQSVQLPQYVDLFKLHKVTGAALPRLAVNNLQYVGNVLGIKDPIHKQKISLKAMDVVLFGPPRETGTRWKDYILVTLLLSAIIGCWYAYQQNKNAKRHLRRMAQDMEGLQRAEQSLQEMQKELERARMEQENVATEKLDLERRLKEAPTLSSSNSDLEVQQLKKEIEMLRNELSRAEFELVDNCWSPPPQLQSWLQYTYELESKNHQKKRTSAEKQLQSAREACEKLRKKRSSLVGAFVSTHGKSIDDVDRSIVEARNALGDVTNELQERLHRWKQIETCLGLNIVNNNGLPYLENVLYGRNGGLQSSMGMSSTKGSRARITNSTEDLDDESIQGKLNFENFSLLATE
In words: Whole-cell recording of E180D Orai-induced CRAC current in S2 cells. The assay is classed as cell-based. Conditions: for effect of divalent cation on E180D Orai-induced current: 20 mM external divalent vs 2 mM Ca2+; for IC50: scaled to current in divalent-free solution.
Text: (§3) Generation of pAc5.1/EGFP, pAc5.1/D-STIM, pAc5.1/D-STIM-V5-His and pAc5.1/olf186-F (GenBank accession number DQ503470) were as described^5. olf186-F pore mutants were made by exchanging the corresponding codons (E180A: GAG to GCG; E180D: GAG to GAC; D184A: GAT to GCT; D186A: GAT to GCT; N188A: AAT to GCT; FIG. 14) using the QuikChange site-directed mutagenesis kit (Stratagene). The pAc5.1/HA-olf186-F clone was made by adding the HA tag via PCR and re-cloned into the XhoI and NotI sites of pAc5.1/V5-His B expression vector. Resulting clones were confirmed by sequencing. Description of the primers and conditions for cloning is available upon request. Both HA-olf186-F and Stim-V5-His were verified for normal function by whole-cell recording.
as §1, §2

The target in assay [2] is T2, D184A, D186A, N188A Orai mutants + Stim (Drosophila melanogaster, UniProt Q9U6B8, D182A).
T2 construct: A cDNA clone, pAc5.1/olf186-F, encoding full-length Drosophila olf186-F-RB; expressed in transfected cells; host or cells: Drosophila S2 cells (Invitrogen)
T2 sequence (P83094 24-570): as the sequence (P83094 24-570, further chain) above
T2 sequence (Q9U6B8 whole entry D182A): as the sequence (Q9U6B8 whole entry E178D) above, with D178E, D182A counted along it
Kind of assay: Whole-cell recording of CRAC current of charge-neutralizing Orai mutants, block by Gd3+. The assay is classed as cell-based. Particulars: D184A Orai.
Text: as §3, §1

In assay [3] the target is T3, D184A, D186A, N188A Orai mutants + Stim (Drosophila melanogaster, UniProt Q9U6B8, D184A).
T3 construct: A cDNA clone, pAc5.1/olf186-F, encoding full-length Drosophila olf186-F-RB; expressed in transfected cells; host or cells: Drosophila S2 cells (Invitrogen)
T3 sequence (P83094 24-570): as the sequence (P83094 24-570, further chain) above
T3 sequence (Q9U6B8 whole entry D184A): as the sequence (Q9U6B8 whole entry E178D) above, with D178E, D184A counted along it
The assay is described as above. The assay is classed as cell-based. Conditions: D186A Orai.
Text: as §3, §1

The target in assay [4] is T4, D184A, D186A, N188A Orai mutants + Stim (Drosophila melanogaster, UniProt Q9U6B8, N186A).
T4 construct: A cDNA clone, pAc5.1/olf186-F, encoding full-length Drosophila olf186-F-RB; expressed in transfected cells; host or cells: Drosophila S2 cells (Invitrogen)
T4 sequence (P83094 24-570): as the sequence (P83094 24-570, further chain) above
T4 sequence (Q9U6B8 whole entry N186A): as the sequence (Q9U6B8 whole entry E178D) above, with D178E, N186A counted along it
Described as above. It counts as cell-based. Conditions: N188A Orai.
Text: as §3, §1

A further assay deals with Drosophila S2 cells. In words: Single-cell ratiometric fura-2 [Ca2+]i imaging. Particulars: ionomycin in zero-Ca2+ solution, control cells. It counts as cell-based. The method, then:
RNAi in Drosophila S2 cells. RNAi experiments were adapted from the protocols described by Worby et al. (2). Drosophila S2 cells (0.5×10^6) were seeded in T-25 flasks in 2 ml of complete S2 media. The next day, media was removed and replaced with 2 ml serum-free S2 media. 20 μg dsRNA was added and cells were incubated at room temperate for 45 min with gentle rocking. 4 ml S2 media was added and cells were incubated for 5 days at 24° C. Cells were then harvested and either plated for single cell Ca^2+ imaging and patch-clamp experiments or processed for RT-PCR analysis.
Single-cell [Ca2+]i imaging. Ratiometric [Ca2+]i imaging was performed as described, using solution recipes described in Table 3. Transfected cells were recognized by co-expressed enhanced green fluorescent protein (EGFP), using filters to avoid contamination of Fura-2 fluorescence by bleed-through of GFP fluorescence. Data were analysed with Metafluor software (Universal Imaging) and OriginPro 7.5 software (OriginLab) and are expressed as means ±SEM.

Assay [5] deals with Stim-Orai protein interaction. Kind of assay: Co-immunoprecipitation of Stim and Orai. Conditions: Ca2+ store depletion, 1 μM TG 15 min. It counts as cell-based, Drosophila. As for the experimental part:
Two days after transfection, 5×10^6 cells were treated with either Ringer or zero-Ca^2+ Ringer+1 μM TG using solutions described^6 for 15 min at room temperature. Cells transfected with Stim-V5-His only or HA-olf186-F only were used as controls. Cell extracts were then prepared using RIPA lysis buffer (Upstate) according to manufacturer instructions. The extracts were pre-cleared with protein A/G beads (Pierce) and protein concentration was determined, using the Pierce BCA Protein Reagent Kit. The cell lysate was then diluted to approximately 1 mg/ml total protein with PBS and mixed with either anti-HA monoclonal antibodies (1 μg/100 μg total protein, Santa Cruz) or anti-V5 monoclonal antibodies (1 μg/100 μg total protein, Invitrogen) for 4 hr at 4° C. Equal amount of samples were mixed with either normal mouse IgG or vehicle as negative controls. Protein A/G beads were subsequently added (1 μl/1 μg IgG) to rock overnight at 4° C. Proteins were eluted by boiling in 4× sample buffer (Invitrogen). Samples were resolved by SDS-PAGE and analyzed by standard western blotting techniques. Anti-HA monoclonal antibodies (Santa Cruz) were used at a dilution of 1:200. Anti-V5 monoclonal antibodies (Invitrogen) were used at a dilution of 1:2500. Proteins were detected by developing with the SuperSignal (Pierce) detection system.

For orientation: IC50 means the concentration that inhibits the measured activity by half.

Take `NCCOB(c1ccccc1)c1ccccc1` [2-APB, 2-aminoethyldiphenyl borate]: the “effect on Ca2+ (CRAC) current” value in assay [1] (5 μM) is reported as “characteristic potentiation of current before blocking; also recorded: potentiated”; in assay [1] (20 μM) it was “blocked; also recorded: inhibited”. Also, the “time course of E180D outward CRAC current” value on E180D Orai mutant + Stim (5 μM) is listed as “immediate decrease preceding potentiation”; at E180D Orai mutant + Stim (20 μM) it was “immediate increase preceding inhibition”.
As for `[Ba+2]` [Ba^2+], the “effect of divalent cation on E180D Orai-induced current” value (from here on “effect of divalent cation”) on E180D Orai mutant + Stim is reported as “significantly increased the inward current while decreasing the outward current”.
`[Ca+2]` [Ca^2+]: at E180D Orai mutant + Stim, the “effect of divalent cation” value was “significantly decreased the outward current”. The IC50 at E180D Orai mutant + Stim (IC50, half-blocking Ca2+ concentration for inward current, at −130 mV) stood at 48 ± 13 µM; on E180D Orai mutant + Stim (IC50, half-blocking Ca2+ concentration for outward current, at 90 mV), 2050 ± 780 µM.
Regarding `[Gd+3]` [Gd^3+], the “suppression of native and WT Orai-induced CRAC current” value in assay [1] is listed as “very effectively suppresses”. The “effect on enhanced Ca2+ current” value in assay [1] (50 nM) was “blocked”. Besides, the “potency of Gd3+ block” value in assay [2] is reported as “significantly reduced”; in assay [3], “significantly reduced”; in assay [4], “to a lesser degree”.
In the case of `O=P(O)(O)O[C@@H]1[C@H](O)[C@H](O)[C@@H](OP(=O)(O)O)[C@H](OP(=O)(O)O)[C@H]1O` [IP3, inositol 1,4,5-trisphosphate], the CRAC current density in assay [1] was −11.4±3.1 pA/pF.
On to `[Mg+2]` [Mg^2+], for which the “effect of divalent cation” value at E180D Orai mutant + Stim is “increased the current”.
As to `[Sr+2]` [Sr^2+], the “effect of divalent cation” value on E180D Orai mutant + Stim was “had little effect”.
Turning to `C[C@H](CCC(=O)O)C[C@H](C)C[C@H](C)C(=O)/C=C(\O)[C@H](C)C[C@H](C)C/C=C/[C@@H](C)[C@@H](O)[C@@H](C)[C@@H](O)C[C@@H]1CC[C@@](C)([C@H]2CC[C@@](C)([C@@H](C)O)O2)O1` [ionomycin], the “peak of Ca2+ release transient” value in the assay on Drosophila S2 cells is approximately 200 nM.
Take `C/C=C(/C)C(=O)O[C@H]1C(C)=C2[C@H]([C@@H]1OC(=O)CCCCCCC)[C@@](C)(OC(C)=O)C[C@H](OC(=O)CCC)[C@@]1(O)[C@H]2OC(=O)[C@@]1(C)O` [thapsigargin]: the CRAC current density in assay [1] was −7.6±2.5 pA/pF. For the same molecule, in assay [5], the “Stim-Orai protein interaction (co-immunoprecipitation)” value was “dramatically increased”.
